Assay results from PubChem BioAssay (NCI).
“And” between values parts separate entries of the source, which are not always exact repeats. Equal entries are not always repeated.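 These data come from cells grown in 96-well plates and exposed to compound for 48 hours at five concentrations. GI50 is the concentration that inhibits growth by half. TGI denotes the concentration required for complete inhibition of growth.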 Where a SMILES comes first, the peptide text is derived from it. [ ]: non-standard residue; d: D form. The star is where a group is joined. NMeF = CN[CH](Cc1ccccc1)C(=O)O; NMeV = CN[CH](C(=O)O)C(C)C; Boc = CC(C)(C)OC(=O)*

How the values were obtained:
Test in all cases: NCI-60 cell line screen, 48 h; in the data active means GI50 below about 0.43 µM; inactive means the rest
NCI-H23 lung = tested on: NCI-H23 lung
A498 renal = tested on: A498 renal
HOP-62 NSCLC = tested on: HOP-62 NSCLC
HOP-92 NSCLC = tested on: HOP-92 NSCLC
OVCAR-8 ovarian = tested on: OVCAR-8 ovarian
NCI-H522 lung = tested on: NCI-H522 lung
RPMI-8226 leukemia = tested on: RPMI-8226 leukemia
UACC-257 melanoma = tested on: UACC-257 melanoma
SK-MEL-28 melanoma = tested on: SK-MEL-28 melanoma
OVCAR-3 ovarian = tested on: OVCAR-3 ovarian
LXFL 529 NSCLC = tested on: LXFL 529 NSCLC
TK-10 renal = tested on: TK-10 renal
EKVX NSCLC = tested on: EKVX NSCLC
CCRF-CEM leukemia = tested on: CCRF-CEM leukemia
MOLT-4 leukemia = tested on: MOLT-4 leukemia
COLO 205 colon = tested on: COLO 205 colon
SF-295 CNS = tested on: SF-295 CNS
OVCAR-4 ovarian = tested on: OVCAR-4 ovarian
XF 498 CNS = tested on: XF 498 CNS
MALME-3M melanoma = tested on: MALME-3M melanoma
HT29 colon = tested on: HT29 colon
KM12 colon = tested on: KM12 colon
NCI-H226 lung = tested on: NCI-H226 lung
HCT-116 colon = tested on: HCT-116 colon
ACHN renal = tested on: ACHN renal
SN12C renal = tested on: SN12C renal
HL-60(TB) leukemia = tested on: HL-60(TB) leukemia
U251 CNS = tested on: U251 CNS
DMS 114 small cell lung = tested on: DMS 114 small cell lung
SNB-19 CNS = tested on: SNB-19 CNS
UO-31 renal = tested on: UO-31 renal
M14 melanoma = tested on: M14 melanoma
UACC-62 melanoma = tested on: UACC-62 melanoma
K-562 leukemia = tested on: K-562 leukemia
SW-620 colon = tested on: SW-620 colon
A549 NSCLC = tested on: A549 NSCLC
SR leukemia = tested on: SR leukemia
SNB-78 CNS = tested on: SNB-78 CNS
SK-MEL-2 melanoma = tested on: SK-MEL-2 melanoma
NCI-H460 lung = tested on: NCI-H460 lung
OVCAR-5 ovarian = tested on: OVCAR-5 ovarian
CAKI-1 renal = tested on: CAKI-1 renal
M19-MEL melanoma = tested on: M19-MEL melanoma
SF-268 CNS = tested on: SF-268 CNS
SK-OV-3 ovarian = tested on: SK-OV-3 ovarian
786-0 renal = tested on: 786-0 renal
DMS 273 small cell lung = tested on: DMS 273 small cell lung
HCC-2998 colon = tested on: HCC-2998 colon
SF-539 CNS = tested on: SF-539 CNS
HCT-15 colon = tested on: HCT-15 colon
IGROV1 ovarian = tested on: IGROV1 ovarian
LOX IMVI melanoma = tested on: LOX IMVI melanoma
SK-MEL-5 melanoma = tested on: SK-MEL-5 melanoma
KM20L2 colon = tested on: KM20L2 colon
HOP-18 NSCLC = tested on: HOP-18 NSCLC
SNB-75 CNS = tested on: SNB-75 CNS
DLD-1 colon = tested on: DLD-1 colon
RXF 393 renal = tested on: RXF 393 renal

O=C1CCN2C(=O)CCN12
> 100 µM: TGI (NCI-H23 lung) | TGI (A498 renal) | TGI (HOP-62 NSCLC) | TGI (HOP-92 NSCLC) | TGI (OVCAR-8 ovarian) | TGI (NCI-H522 lung) | TGI (RPMI-8226 leukemia) | TGI (UACC-257 melanoma) | TGI (SK-MEL-28 melanoma) | TGI (OVCAR-3 ovarian) | TGI (LXFL 529 NSCLC) | TGI (TK-10 renal) | TGI (EKVX NSCLC) | TGI (CCRF-CEM leukemia) | TGI (MOLT-4 leukemia) | TGI (COLO 205 colon) | TGI (SF-295 CNS) | TGI (OVCAR-4 ovarian) | TGI (XF 498 CNS) | TGI (MALME-3M melanoma) | TGI (HT29 colon) | TGI (KM12 colon) | TGI (NCI-H226 lung) | TGI (HCT-116 colon) | TGI (ACHN renal) | TGI (SN12C renal) | TGI (HL-60(TB) leukemia) | TGI (U251 CNS) | TGI (DMS 114 small cell lung) | TGI (SNB-19 CNS) | TGI (UO-31 renal) | TGI (M14 melanoma) | TGI (UACC-62 melanoma) | TGI (K-562 leukemia) | TGI (SW-620 colon) | TGI (A549 NSCLC) | TGI (SR leukemia) | TGI (SNB-78 CNS) | TGI (SK-MEL-2 melanoma) | TGI (NCI-H460 lung) | TGI (OVCAR-5 ovarian) | TGI (CAKI-1 renal) | TGI (M19-MEL melanoma) | TGI (SF-268 CNS) | TGI (SK-OV-3 ovarian) | TGI (786-0 renal)

CC(C)C(NC(=O)OC(C)(C)C)C(=O)N(C)C(Cc1ccccc1)C(=O)N(C)C(C(=O)O)C(C)C (stereo not drawn) (Boc-Val-[NMeF]-[NMeV]-OH; configuration not given here)
inactive: GI50 (ACHN renal) 23.1 µM and > 100 µM
71 µM and > 100 µM: TGI (ACHN renal)
> 100 µM: TGI (NCI-H23 lung) | TGI (HOP-62 NSCLC) | TGI (OVCAR-8 ovarian) | TGI (NCI-H522 lung) | TGI (RPMI-8226 leukemia) | TGI (DMS 273 small cell lung) | TGI (UACC-257 melanoma) | TGI (SK-MEL-28 melanoma) | TGI (OVCAR-3 ovarian) | TGI (LXFL 529 NSCLC) | TGI (TK-10 renal) | TGI (EKVX NSCLC) | TGI (CCRF-CEM leukemia) | TGI (MOLT-4 leukemia) | TGI (COLO 205 colon) | TGI (HCC-2998 colon) | TGI (SF-295 CNS) | TGI (XF 498 CNS) | TGI (MALME-3M melanoma) | TGI (HT29 colon) | TGI (SF-539 CNS) | TGI (KM12 colon) | TGI (NCI-H226 lung) | TGI (HCT-116 colon) | TGI (SN12C renal) | TGI (HL-60(TB) leukemia) | TGI (HCT-15 colon) | TGI (U251 CNS) | TGI (IGROV1 ovarian) | TGI (DMS 114 small cell lung) | TGI (SNB-19 CNS) | TGI (UO-31 renal) | TGI (M14 melanoma) | TGI (UACC-62 melanoma) | TGI (K-562 leukemia) | TGI (SW-620 colon) | TGI (A549 NSCLC) | TGI (SR leukemia) | TGI (LOX IMVI melanoma) | TGI (NCI-H460 lung) | TGI (SK-MEL-5 melanoma) | TGI (M19-MEL melanoma) | TGI (SF-268 CNS) | TGI (SK-OV-3 ovarian) | TGI (786-0 renal) | TGI (KM20L2 colon)

COc1cc(C2C(Cl)C(=O)N2NC(=O)c2ccc(NC(C)=O)cc2)cc(OC)c1OC (stereo unspecified)
> 100 µM: TGI (NCI-H23 lung) | TGI (HOP-62 NSCLC) | TGI (HOP-92 NSCLC) | TGI (NCI-H522 lung) | TGI (RPMI-8226 leukemia) | TGI (UACC-257 melanoma) | TGI (SK-MEL-28 melanoma) | TGI (OVCAR-3 ovarian) | TGI (LXFL 529 NSCLC) | TGI (TK-10 renal) | TGI (CCRF-CEM leukemia) | TGI (MOLT-4 leukemia) | TGI (COLO 205 colon) | TGI (SF-295 CNS) | TGI (MALME-3M melanoma) | TGI (HT29 colon) | TGI (SF-539 CNS) | TGI (KM12 colon) | TGI (NCI-H226 lung) | TGI (HCT-116 colon) | TGI (HL-60(TB) leukemia) | TGI (U251 CNS) | TGI (IGROV1 ovarian) | TGI (HOP-18 NSCLC) | TGI (SNB-19 CNS) | TGI (UO-31 renal) | TGI (UACC-62 melanoma) | TGI (K-562 leukemia) | TGI (SW-620 colon) | TGI (A549 NSCLC) | TGI (SK-MEL-2 melanoma) | TGI (NCI-H460 lung) | TGI (OVCAR-5 ovarian) | TGI (SK-MEL-5 melanoma) | TGI (SNB-75 CNS) | TGI (M19-MEL melanoma) | TGI (SF-268 CNS) | TGI (SK-OV-3 ovarian) | TGI (DLD-1 colon)

CC(C)C(Nc1c2ccccc2nc2ccccc12)C(=O)O (stereo unspecified)
> 100 µM: TGI (NCI-H23 lung) | TGI (HOP-92 NSCLC) | TGI (OVCAR-8 ovarian) | TGI (NCI-H522 lung) | TGI (RPMI-8226 leukemia) | TGI (DMS 273 small cell lung) | TGI (RXF 393 renal) | TGI (UACC-257 melanoma) | TGI (SK-MEL-28 melanoma) | TGI (OVCAR-3 ovarian) | TGI (LXFL 529 NSCLC) | TGI (TK-10 renal) | TGI (EKVX NSCLC) | TGI (CCRF-CEM leukemia) | TGI (MOLT-4 leukemia) | TGI (COLO 205 colon) | TGI (HCC-2998 colon) | TGI (SF-295 CNS) | TGI (XF 498 CNS) | TGI (MALME-3M melanoma) | TGI (HT29 colon) | TGI (SF-539 CNS) | TGI (KM12 colon) | TGI (NCI-H226 lung) | TGI (HCT-116 colon) | TGI (ACHN renal) | TGI (SN12C renal) | TGI (HL-60(TB) leukemia) | TGI (HCT-15 colon) | TGI (U251 CNS) | TGI (IGROV1 ovarian) | TGI (SNB-19 CNS) | TGI (UO-31 renal) | TGI (M14 melanoma) | TGI (UACC-62 melanoma) | TGI (K-562 leukemia) | TGI (SW-620 colon) | TGI (A549 NSCLC) | TGI (SR leukemia) | TGI (LOX IMVI melanoma) | TGI (SK-MEL-2 melanoma) | TGI (NCI-H460 lung) | TGI (OVCAR-5 ovarian) | TGI (CAKI-1 renal) | TGI (SNB-75 CNS) | TGI (M19-MEL melanoma) | TGI (SF-268 CNS) | TGI (SK-OV-3 ovarian) | TGI (786-0 renal) | TGI (DLD-1 colon) | TGI (KM20L2 colon)
85.3 µM: TGI (OVCAR-4 ovarian)

c1ccc(CNn2nnc3ccccc32)cc1
> 100 µM: TGI (NCI-H23 lung) | TGI (HOP-62 NSCLC) | TGI (HOP-92 NSCLC) | TGI (OVCAR-8 ovarian) | TGI (NCI-H522 lung) | TGI (RPMI-8226 leukemia) | TGI (DMS 273 small cell lung) | TGI (RXF 393 renal) | TGI (UACC-257 melanoma) | TGI (SK-MEL-28 melanoma) | TGI (OVCAR-3 ovarian) | TGI (LXFL 529 NSCLC) | TGI (TK-10 renal) | TGI (EKVX NSCLC) | TGI (CCRF-CEM leukemia) | TGI (MOLT-4 leukemia) | TGI (COLO 205 colon) | TGI (HCC-2998 colon) | TGI (SF-295 CNS) | TGI (OVCAR-4 ovarian) | TGI (XF 498 CNS) | TGI (MALME-3M melanoma) | TGI (HT29 colon) | TGI (KM12 colon) | TGI (ACHN renal) | TGI (SN12C renal) | TGI (HL-60(TB) leukemia) | TGI (HCT-15 colon) | TGI (IGROV1 ovarian) | TGI (DMS 114 small cell lung) | TGI (SNB-19 CNS) | TGI (UO-31 renal) | TGI (M14 melanoma) | TGI (UACC-62 melanoma) | TGI (K-562 leukemia) | TGI (SW-620 colon) | TGI (A549 NSCLC) | TGI (SNB-78 CNS) | TGI (LOX IMVI melanoma) | TGI (SK-MEL-2 melanoma) | TGI (NCI-H460 lung) | TGI (OVCAR-5 ovarian) | TGI (CAKI-1 renal) | TGI (SK-MEL-5 melanoma) | TGI (SNB-75 CNS) | TGI (M19-MEL melanoma) | TGI (SF-268 CNS) | TGI (SK-OV-3 ovarian) | TGI (786-0 renal) | TGI (DLD-1 colon) | TGI (KM20L2 colon)
